These are literature values, as cited in patent US20210228671A1, “EXTRACT OF VEGETATION WATERS FOR USE IN THE TREATMENT AND/OR IN THE PREVENTION OF PROSTATE CANCER” (FATTORIA LA VIALLA DI GIANNI, ANTONIO E BANDINO LO FRANCO - …, priority 2018, published 2021).

For this series the following is noted: high concentrations, up to 250-500 mg/kg/day.

On to `OCCc1ccc(O)c(O)c1` [hydroxytyrosol], for which the “toxic effect of in vivo administration” value is “does not exert any toxic effect”.
